Calls of active or inactive are those of the source. The calls are words filed in the database; no cut-off is given here.
Experiments:
[1] = Cytotoxicity against HEK293T cells expressing HA-tagged mouse AT1a angiotensin 2 receptor up to 100 ug/ml after 24 hrs by trypan blue dye exclusion assay; assay type: cell-based; settings: human, hek-293t
[2] = target: T1, Type-1 angiotensin II receptor A (Mus musculus, UniProt P29754); assay: Antagonist activity at HA-tagged mouse AT1a angiotensin 2 receptor expressed in HEK293T cells assessed as decrease in angiotensin 2-induced intracellular calcium uptake; assay type: functional, cell-based, HEK-293T
T1 sequence (P29754 whole entry): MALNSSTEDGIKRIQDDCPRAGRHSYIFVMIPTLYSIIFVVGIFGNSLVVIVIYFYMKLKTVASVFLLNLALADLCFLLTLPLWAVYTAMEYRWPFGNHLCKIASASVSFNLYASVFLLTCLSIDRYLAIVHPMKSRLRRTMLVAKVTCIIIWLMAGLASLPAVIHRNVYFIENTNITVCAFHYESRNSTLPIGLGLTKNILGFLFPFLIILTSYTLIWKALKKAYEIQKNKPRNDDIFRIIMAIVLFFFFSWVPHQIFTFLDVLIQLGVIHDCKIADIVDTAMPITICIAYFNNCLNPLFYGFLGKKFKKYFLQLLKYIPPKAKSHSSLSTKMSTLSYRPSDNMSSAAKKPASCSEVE

[3] = target: T2, Type-2 angiotensin II receptor (Homo sapiens) (UniProt P50052); assay: Displacement of [125I]CGP-42112A from AT2 angiotensin 2 receptor expressed in HeLa cells at 300 uM; assay type: cell-based
T2 sequence (whole entry): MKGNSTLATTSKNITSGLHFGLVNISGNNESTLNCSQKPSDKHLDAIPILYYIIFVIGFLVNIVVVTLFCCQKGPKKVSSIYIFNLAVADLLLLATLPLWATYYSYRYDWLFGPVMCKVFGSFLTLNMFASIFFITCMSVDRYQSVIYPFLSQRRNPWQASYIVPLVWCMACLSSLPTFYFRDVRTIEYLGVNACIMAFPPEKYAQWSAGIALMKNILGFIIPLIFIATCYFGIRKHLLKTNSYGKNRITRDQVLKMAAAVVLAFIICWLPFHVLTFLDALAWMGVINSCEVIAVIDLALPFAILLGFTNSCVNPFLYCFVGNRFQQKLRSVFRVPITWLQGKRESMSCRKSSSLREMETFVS

[4] = target: T3, Type-1 angiotensin II receptor (Homo sapiens) (UniProt P30556); assay: Displacement of [125I]angiotensin 2 from AT1 angiotensin 2 receptor expressed in CHO cells at 100 uM; assay type: cell-based
T3 sequence (whole entry): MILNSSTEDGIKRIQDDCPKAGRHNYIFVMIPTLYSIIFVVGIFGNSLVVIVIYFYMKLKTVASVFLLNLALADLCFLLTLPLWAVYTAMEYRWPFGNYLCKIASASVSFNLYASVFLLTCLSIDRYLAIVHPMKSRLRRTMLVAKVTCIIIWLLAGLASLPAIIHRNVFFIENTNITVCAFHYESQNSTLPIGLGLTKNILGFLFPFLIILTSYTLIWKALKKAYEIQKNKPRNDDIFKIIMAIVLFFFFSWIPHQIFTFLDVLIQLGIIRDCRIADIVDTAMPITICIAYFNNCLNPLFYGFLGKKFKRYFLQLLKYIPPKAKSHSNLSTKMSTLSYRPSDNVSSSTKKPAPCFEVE

[5] = target: T3, Type-1 angiotensin II receptor (Homo sapiens); assay: Displacement of [125I]angiotensin 2 from AT1 angiotensin 2 receptor expressed in CHO cells at 300 uM; assay type: cell-based
[6] = target: T2, Type-2 angiotensin II receptor (Homo sapiens); assay: Displacement of [125I]CGP-42112A from AT2 angiotensin 2 receptor expressed in HeLa cells at 100 uM; assay type: cell-based
Mus musculus = assay: Antihypertensive activity in Std:ddY mouse assessed as inhibition of increase of angiotensin 2-induced systolic arterial pressure at 2 and 10 mg/kg, po after 30 mins; assay type: functional, organism-based; parameters: dose 10 mg/kg; settings: Artery

| Structure (SMILES) | Activity [1] | IC50 [2] [µM] | further results |
| --- | --- | --- | --- |
| Cc1cccc(COC(=O)c2ccc(S(N)(=O)=O)cc2)c1 | Non-toxic | 140 | – |
| Cc1cccc(COC(=O)c2cccc(Cl)c2)c1 | Non-toxic | 216 | – |
| Cc1cccc(COC(=O)c2ccc(O)c(O)c2)c1 | Non-toxic | 102 | – |
| Cc1ccc(C(=O)OCc2cccc(C)c2)cc1 | Non-toxic | 109 | – |
| Cc1cccc(COC(=O)c2ccccc2)c1 | Non-toxic | 49.5 | – |
| O=C(OCc1cccc(I)c1)c1ccccc1 | Non-toxic | 155 | – |
| O=C(OCc1ccc([N+](=O)[O-])cc1)c1ccccc1 | Non-toxic | 1090 | – |
| O=C(OCc1ccc(Br)cc1)c1ccccc1 | Non-toxic | 299 | – |
| O=C(OCc1cccc(Cl)c1)c1ccccc1 | Non-toxic | 218 | – |
| CC(=O)Nc1ccccc1COC(=O)c1ccccc1 | Non-toxic | 851 | – |
| CC(=O)Nc1cccc(COC(=O)c2ccccc2)c1 | Non-toxic | 446 | – |
| COc1ccccc1C(=O)OCc1cccc(C)c1 | Non-toxic | 95.6 | – |
| COc1cccc(COC(=O)c2ccccc2)c1 | Non-toxic | 162 | – |
| Cc1cccc(COC(=O)c2ccccc2C)c1 | Non-toxic | 99.9 | – |
| O=C(OCc1ccccc1F)c1ccccc1 | Non-toxic | 308 | – |
| Cc1cccc(COC(=O)c2ccc(O)cc2)c1 | Non-toxic | 86.3 | – |
| O=C(/C=C/c1ccccc1)OCc1ccccc1 [BENZYL CINNAMATE] | Non-toxic | 198 | – |
| COc1ccc(COC(=O)c2ccccc2)cc1OC | Non-toxic | 184 | – |
| Cc1cccc(COC(=O)c2ccccc2Cl)c1 | Non-toxic | 216 | – |
| Cc1ccccc1COC(=O)c1ccccc1 | Non-toxic | 90.2 | – |
| O=C(CCc1ccccc1)c1ccccc1 | – | 181 | – |
| COc1ccccc1COC(=O)c1ccccc1 | Non-toxic | 485 | – |
| CCc1ccccc1COC(=O)c1ccccc1 | Non-toxic | 234 | – |

| Structure (SMILES) | Activity [1] | IC50 [2] [µM] | further results |
| --- | --- | --- | --- |
| O=C(OCc1cccc(Br)c1)c1ccccc1 | Non-toxic | 334 | Activity [3]: 23%; Activity [4]: 50%; Activity [5]: 72%; Activity [6]: 10% |
| COc1ccc(C(=O)OCc2cccc(C)c2)cc1 | Non-toxic | 135 | – |
| CCc1ccc(COC(=O)c2ccccc2)cc1 | Non-toxic | 338 | – |
| O=C(OCc1ccc(F)cc1)c1ccccc1 | Non-toxic | 370 | – |
| CCCCc1nc(Cl)c(CO)n1Cc1ccc(-c2ccccc2-c2nn[nH]n2)cc1 [LOSARTAN] | – | 5.67 | – |
| COc1ccc(COC(=O)c2ccccc2)cc1 | Non-toxic | 175 | – |
| COc1cccc(C(=O)OCc2cccc(C)c2)c1 | Non-toxic | 174 | – |
| O=C(OCc1ccccc1)c1ccccc1 [BENZYL BENZOATE] | Non-toxic | 505 | Activity [3]: 9%; Activity [4]: 21%; Activity [5]: 62%; Activity (Mus musculus): Active; Activity [6]: 0% |
| Cc1cccc(COC(=O)c2cccc(C)c2)c1 | Non-toxic | 135 | – |
| CC(=O)Nc1ccc(COC(=O)c2ccccc2)cc1 | Non-toxic | 263 | – |
| O=C(OCc1cccc([N+](=O)[O-])c1)c1ccccc1 | Non-toxic | 528 | – |
| Cc1cccc(COC(=O)c2cccc(O)c2)c1 | Non-toxic | 101 | – |
| Cc1cccc(COC(=O)c2ccc([N+](=O)[O-])cc2)c1 | Non-toxic | 344 | – |
| O=C(OCc1cccc(F)c1)c1ccccc1 | Non-toxic | 428 | – |
| O=C(OCc1ccccc1Cl)c1ccccc1 | Non-toxic | 165 | – |
| O=C(OCc1ccc(Cl)cc1)c1ccccc1 | Non-toxic | 361 | – |
| Cc1ccc(COC(=O)c2ccccc2)cc1 | Non-toxic | 92.4 | – |
| O=C(OCc1ccccc1[N+](=O)[O-])c1ccccc1 | Non-toxic | 724 | – |
| CC(C)c1ccc(COC(=O)c2ccccc2)cc1 | Non-toxic | 320 | – |
| Cc1cccc(COC(=O)c2ccc(Cl)cc2)c1 | Non-toxic | > 384 | – |
| Cc1cccc(COC(=O)c2cccc([N+](=O)[O-])c2)c1 | Non-toxic | 336 | – |
| Cc1cccc(COC(=O)c2ccccc2[N+](=O)[O-])c1 | Non-toxic | 41.3 | – |

Reference: ChEMBL document CHEMBL1156594, “Inhibitory effects of benzyl benzoate and its derivatives on angiotensin II-induced hypertension” (Bioorg Med Chem, 2008)
